Assay [1] relates to A375 melanoma cells. Description: Alamar Blue cell inhibition assay, A375. Format: cell-based. As to conditions: drug added 24 hours before Compound K, read-out: IC50 (single agent). (In general: Resazurin is reduced to fluorescent resorufin, in cell work by metabolically active cells.)
The subject of assay [2] is SUM-149PT inflammatory breast carcinoma cells. The assay is described as follows: Alamar Blue cell inhibition assay, SUM-149PT. The note with it: for IC50: read-out: IC50 (single agent). Format: cell-based.
Assay [3] concerns MDA-MB-468 breast cancer cells. The assay is described as follows: Alamar Blue cell inhibition assay, MDA-MB-468. As to conditions: 5 day assay, read-out: IC50 (single agent). Format: cell-based.
Assay [4] deals with SUM-190PT inflammatory breast carcinoma cells. Description: cells. The note with it: for IC50: read-out: IC50 (single agent).
The test system of assay [5] is BT-474 breast carcinoma cells. The assay is described as follows: Alamar Blue cell inhibition assay, BT-474. The assay is classed as cell-based. The note with it: read-out: IC50 (single agent).
For assay [6], the system named is phosphorylation of AKT at S129, T308, S473, p21 at T145, cleavage of PARP. The assay is described as follows: Western hybridization analysis in BT-474 (AKT, p21 phosphorylation, PARP cleavage). The assay is classed as cell-based. As to conditions: 5 uM Compound K, 1 uM AKTi VIII, 5:1 combination, 8 hour assay.
Assay [7] has as its system Hs 578T breast cancer cells. The assay is described as follows: Alamar Blue cell inhibition assay, Hs 578T. The assay is classed as cell-based. As to conditions: 4 day assay, read-out: IC50 (single agent).
For assay [8], the system named is phosphorylation of Akt at Ser129 and Ser473, PRAS40 at Thr246. The note with it: MDA-MB-453; 10 uM Compound K, 100 uM Erlotinib, 2 uM Lapatinib; 2, 4 and 8 hour. The source says: Whole proteomes were isolated from treated cells and analyzed by Western blot for changes in phosphorylation status of Akt at Ser129 and Ser473 or downstream mediator of Akt activity, PRAS40 at Thr246.

Assay [9] has as its system T47D breast carcinoma cells. Description: Alamar Blue cell inhibition assay, T47D. Format: cell-based. As to conditions: read-out: IC50 (single agent).
Assay [10] has as its system erlotinib-resistant MDA-MB-453 breast carcinoma cells. The note with it: read-out: IC50 (single agent), 4 day assay.
For assay [11], the system named is MIA PaCa-2 pancreatic cancer cells. The assay is described as follows: Alamar Blue cell inhibition assay, MIA PaCa-2.
In assay [12] the test system is erlotinib-resistant ZR-75-1 breast carcinoma cells. Description: Alamar Blue cell inhibition assay, ZR-75-1. Format: cell-based. As to conditions: 4 day assay, read-out: IC50 (single agent).
The test system of assay [13] is erlotinib-resistant MDA-MB-453 breast carcinoma cells. Description: cells. As to conditions: Homo sapiens, MDA-MB-453, 96 h, read-out: IC50 (single agent).
Where [14] appears, read: Homo sapiens, A-375, A375, 5 day assay.
Setting [15] is: Homo sapiens, MDA-MB-468, 120 h, Compound K added first, drug the next day.
The mark [16] stands for this setting: Homo sapiens, 72 h, BT-474, 3 day assay.
The mark [17] stands for this setting: Homo sapiens, 96 h, BT-474, 4 day assay.
The mark [18] stands for this setting: Compound K added first, drug the next day.
The mark [19] stands for this setting: Homo sapiens, MDA-MB-468, 120 h, drug added first, Compound K the next day.
[20] abbreviates: Homo sapiens, 96 h, T47D, 4 day assay.
[21] abbreviates: Homo sapiens, MIA PaCa-2, read-out: IC50 (single agent).

Where “and” joins values, the source holds several entries; their conditions need not be identical. Identical values can stand only once. Counter-ions that a name gives are not always drawn. Like-named read-outs stand apart in the source and are kept apart here. A value given as a limit tells only on which side of the number the result lay.

One may read the IC50 as the concentration that inhibits the measured activity by half. `O=c1[nH]cc(F)c(=O)[nH]1` [5-Fluorouracil]: the IC50 in [1] (setting [14]) is 3 µM; in assay [2] (Homo sapiens, SUM149PT) it was 1.7 µM; in assay [3] (setting [15]) it was 10.6 µM; in [4] (SUM190PT), 12.2 µM. Besides, in assay [4] (Compound K 0 μM, 5-Fluorouracil 10 μM, 5-Fluorouracil added 24 h before K, 5 day assay, positive=synergy, negative=antagonism), the “degree of inhibitory effect found with agent combination” value was 0.0% and −0.0%.

Regarding `O=c1[nH]c2ccccc2n1C1CCN(Cc2ccc(-c3nc4cc5[nH]cnc5cc4nc3-c3ccccc3)cc2)CC1` [AKTi VIII, 1,3-Dihydro-1-(1-((4-(6-phenyl-1H-imidazo[4,5-g]quinoxalin-7-yl)phenyl)methyl)-4-piperidinyl)-2H-benzimidazol-2-one], the IC50 in [5] (setting [16]) is 0.55 µM. Further, the IC50 in [5] (setting [17]) was 0.5 µM. In assay [6], the “cleavage of PARP (i.e. induction of apoptosis)” value is listed as “very minor effect”; the “phosphorylation of AKT at S129” value is listed as “no effect”; the “phosphorylation of AKT at T308 and S473” value is given as “Dramatically reduced”; the “phosphorylation of p21 at T145” value was “Dramatically decreased”.

`Cn1c(=O)n(-c2ccc(C(C)(C)C#N)cc2)c2c3cc(-c4cnc5ccccc5c4)ccc3ncc21` [BEZ235]: in [5] (setting [16]), the IC50 was 0.01 µM.

As for `N.N.[Cl][Pt][Cl]` [Cisplatin], the concentration for half-maximal inhibition (IC50) is 0.462 µM in [2] (SUM-149PT, drug added 24 hours before Compound K, 5 day assay) and 0.43 µM in [3] (setting [18]).

Regarding `CO[C@H]1/C=C\C=C(/C)C(=O)NC2=CC(=O)C(NCCN(C)C)=C(C[C@@H](C)C[C@H](OC)[C@H](O)[C@@H](C)/C=C(\C)[C@@H]1OC(N)=O)C2=O` [Compound 17-DMAG, 17-Dimethylamino-ethylamino-17-demethoxygeldanamycin], in assay [7], the IC50 turned out to be 0.00637 µM.

Take `O=C(O)c1ccc2c(c1)nc(Nc1cccc(Cl)c1)c1ccncc12` [Compound K]: the “phosphorylation of Akt at Ser129” value in assay [8] was “significant reduction”. Besides, in assay [8], the “phosphorylation of Akt at Ser473” value is “affected, but to a lesser degree”. Besides, the “phosphorylation of PRAS40 at Thr246” value in assay [8] was “significantly less pronounced”. Also, the IC50 in [1] (A375, 4 day assay) was 5 µM and 4.8 µM and 5.1 µM; in assay [9] (T47D, 4 day assay), 5.9 µM and 5.87 µM; in assay [9] (T-47D, 3 day assay), 3.35 µM; in assay [5] it was 2.7 µM and 2.9 µM and 2.68 µM; in [10], 6.15 µM; in [11] (read-out: IC50 (single agent), MIA PaCa-2, added simultaneously, 4 day assay), 1700 nM. Also, the half-maximal inhibitory concentration (IC50) is 1500 nM and 2000 nM in assay [11] (read-out: IC50 (single agent), MIA PaCa-2, drug added 24 hours before Compound K, 4 day assay); 4100 nM in assay [11] (read-out: IC50 (single agent), MIA PaCa-2, drug added 24 hours before Compound K, 5 day assay); 4.1 µM in assay [12]; 4.6 µM and 4.5 µM and 4.3 µM in assay [3] (setting [18]); 4.4 µM and 4.3 µM and 4.5 µM in [3] (drug added first, Compound K the next day); 0.852 µM in assay [4] (SUM-190PT, drug added 24 hours before Compound K, 5 day assay). In addition, the IC50 in assay [7] was 17.6 µM and 16.7 µM. Moreover, in assay [6], the “cleavage of PARP (i.e. induction of apoptosis)” value is listed as “very minor effect”. For the same compound, in [6], the “phosphorylation of AKT at S129” value is “Dramatically reduced”. The “phosphorylation of AKT at T308 and S473” value in assay [6] is given as “moderate effect”. Besides, the “phosphorylation of p21 at T145” value in assay [6] was “Dramatically decreased”.

Regarding `COc1cccc2c1C(=O)c1c(O)c3c(c(O)c1C2=O)C[C@@](O)(C(=O)CO)C[C@@H]3O[C@H]1C[C@H](N)[C@H](O)[C@H](C)O1` [Doxorubicin], the IC50 was 0.016 µM in assay [3] (setting [15]) and 0.017 µM in assay [3] (setting [19]).

Take `C#Cc1cccc(Nc2ncnc3cc(OCCOC)c(OCCOC)cc23)c1` [Erlotinib]: in [8], the “phosphorylation of Akt at Ser129” value was “no effect”. Besides, the “phosphorylation of Akt at Ser473” value in assay [8] is given as “below the detectable levels”. Besides, the “phosphorylation of PRAS40 at Thr246” value in assay [8] is given as “pronounced decrease”. Further, the “degree of inhibitory effect found with agent combination” value in assay [2] (Compound K 0 μM, Erlotinib 10 μM, Erlotinib added 24 h before K, 5 day assay, positive=synergy, negative=antagonism) turned out to be 0.0%. For the same compound, the half-inhibitory concentration (IC50) in assay [2] (Homo sapiens, SUM149PT) is 2.2 µM; in assay [9] (setting [20]) it was 47 µM; in [5] (setting [17]), 6.6 µM; in assay [12] (Homo sapiens, 96 h) it was greater than 200 µM; in assay [13], greater than 100 µM.

In the case of `Nc1nc(F)nc2c1ncn2[C@@H]1O[C@H](CO)[C@@H](O)[C@@H]1O` [Fludarabine], the IC50 in assay [1] (setting [14]) turned out to be 0.0029 µM.

For the compound `Nc1ccn([C@@H]2O[C@H](CO)[C@@H](O)C2(F)F)c(=O)n1` [Gemcitabine], the IC50 was determined as 184 nM in assay [11] (setting [21]), 0.008 µM in [3] (setting [15]) and 0.0088 µM in assay [3] (setting [19]).

Take `O=c1cc(N2CCOCC2)oc2c(-c3ccccc3)cccc12` [LY294002, 2-(4-morpholinyl)-8-phenyl-4H-1-benzopyran-4-one]: the IC50 in assay [5] (setting [16]) came to 2.26 µM.

`CS(=O)(=O)CCNCc1ccc(-c2ccc3ncnc(Nc4ccc(OCc5cccc(F)c5)c(Cl)c4)c3c2)o1` [Lapatinib]: in [8], the “phosphorylation of Akt at Ser129” value is listed as “no effect”, the “phosphorylation of Akt at Ser473” value was “below the detectable levels” and the “phosphorylation of PRAS40 at Thr246” value is “pronounced decrease”. For the same compound, in [9] (setting [20]), the IC50 stood at 5.68 µM.

As for `Oc1cccc(-c2nc(N3CCOCC3)c3oc4ncccc4c3n2)c1` [PI-103, 3-[4-(4-morpholinylpyrido[3′,2′:4,5]furo[3,2-d]pyrimidin-2-yl]phenol hydrochloride], the IC50 came to 5.37 µM in [9] (Homo sapiens, T47D, 72 h) and 0.41 µM in assay [5] (setting [16]).

Regarding `Cc1[nH]c2ccccc2c1CCNCc1ccc(/C=C/C(=O)NO)cc1` [Panobinostat], the IC50 in assay [7] (Homo sapiens, 96 h) was found to be 0.00276 µM.

On to `CO[C@H]1C[C@@H]2CC[C@@H](C)[C@@](O)(O2)C(=O)C(=O)N2CCCC[C@H]2C(=O)O[C@H]([C@H](C)C[C@@H]2CC[C@@H](O)[C@H](OC)C2)CC(=O)[C@H](C)/C=C(\C)[C@@H](O)[C@@H](OC)C(=O)[C@H](C)C[C@H](C)/C=C/C=C/C=C/1C` [Rapamycin], for which the IC50 amounted to 9.7 µM in [2] (Homo sapiens, SUM149PT) and 18100 nM in assay [11] (Homo sapiens, MIA PaCa-2, 96 h, read-out: IC50 (single agent)).

Turning to `CNC(=O)c1cc(Oc2ccc(NC(=O)Nc3ccc(Cl)c(C(F)(F)F)c3)cc2)ccn1` [Sorafenib], in assay [9] (setting [20]), the IC50 was found to be 3.58 µM.

Take `CCN(CC)CCNC(=O)c1c(C)[nH]c(/C=C2\C(=O)Nc3ccc(F)cc32)c1C` [Sunitinib]: the IC50 in assay [1] (Homo sapiens, A-375, A375, 4 day assay) worked out at 0.145 µM; in assay [9] (setting [20]), 6.2 µM; in assay [11] (setting [21]), 420 nM.

On to `CC[C@]1(O)C[C@@H]2CN(CCc3c([nH]c4ccccc34)[C@@](C(=O)OC)(c3cc4c(cc3OC)N(C)[C@H]3[C@@](O)(C(=O)OC)[C@H](OC(C)=O)[C@]5(CC)C=CCN6CC[C@]43[C@@H]65)C2)C1` [Vinblastine], for which the concentration for half-maximal inhibition (IC50) is 0.0012 µM in assay [1] (setting [14]) and 0.014 nM in [11] (setting [21]).

Take `COC[C@H]1OC(=O)c2coc3c2[C@@]1(C)C1=C(C3=O)[C@@H]2CCC(=O)[C@@]2(C)C[C@H]1OC(C)=O` [Wortmannin]: the concentration for half-maximal inhibition (IC50) in assay [5] (setting [16]) is 25.9 µM.

The values are drawn from patent US20100173013A1, “TREATMENT OF NEOPLASTIC DISORDERS USING COMBINATION THERAPIES” (priority 2009, published 2010).
